Data from patent US20210283198A1, “METHOD FOR TREATING AND/OR PREVENTING COCCIDIOSIS” (priority 2020, published 2021).
Marks after values point to notes of the source that are not given here. *1 amine or outer side, *2 acyl side, *3 side chain or, on linkers, in order; H or OH if unused. Where a SMILES comes first, the peptide text is derived from it. Bridges are numbered along the chain shown (N, C = ends). [ ]: non-standard residue; d: D form. X1 = CC(C)CCCCCCCCC[C@H](CC(=O)[*:1])O[*:2]

System: Eimeria tenella oocyst
Experiment: In vitro sporulation of the coccidia oocyst in 2% K2Cr2O7
Format: cell-based
Conditions: 100 ppm, 25° C., 10^4 oocysts/mL, mean ± SD (n = 3)
Description: Intestinal samples from naturally infected broilers were obtained from poultry farms. Un-sporulated oocysts were obtained from the cecal contents of broilers at day 8 post-infection. Oocyst sporulation was conducted in an aqueous solution of 2% potassium dichromate (K2Cr2O7) with or without surfactin standard or the Bacillus licheniformis-fermented product-derived surfactin C-form for 72 h at 25° C. (10^4 oocysts/mL). Sporulated and non-sporulated oocysts were counted and the percentage of sporulation was estimated by counting the number of sporulated oocysts in a total of 100 oocysts by microscopic observation. Second-generation merozoites were collected from ceca at 110 h post-infection from chickens that had been inoculated with 1×10^5 sporulated oocysts per bird. The merozoites (10^4/mL) were treated with or without surfactin standard or the Bacillus licheniformis-fermented product-derived surfactin C-form for 1 h at 37° C. Three groups of merozoites were prepared, including: (1) a control group comprising 10^4/ml merozoites without surfactin; (2) an experimental group comprising 10^4/ml merozoites treated with 100 ppm surfactin standard; and (3) an experimental group comprising 10^4/ml merozoites treated with the 100 ppm Bacillus licheniformis-fermented product-derived surfactin C-form. After incubation, propidium iodide was added to each well and then stained at 37° C. for 30 min in the dark. The stained samples were examined under a confocal laser-scanning microscope (ZEISS LSM800, Jena, Germany). The percentage of death of merozoite was determined by counting the number of dead merozoite in a total of 100 merozoites. The Eimeria sporozoites from vaccine were treated with different surfacitn for 1 h at 37° C. (10^6 sporozoites/mL). The sporozoites were fixed with 2.5% glutaraldehyde in 50 mM potassium phosphate buffer (pH 6.8) overnight at 4° C., and then washed three times with 50 mM potassium phosphate buffer (pH 6.8). Dehydration was performed in different concentrations of ethanol (35-100%) for 10 mM each and the samples were dried in a critical point drier (CPD 030, Bal-Tec AG, Balzers, Liechtenstein). Specimens were coated under vacuum with gold:palladium (60:40) in a sputter coater (Bal-Tec AG, Balzers, Liechtenstein), and examined using a scanning electron microscope (JSM-6300, JEOL Ltd., Tokyo, JAPAN). […]

## CC(C)CCCCCCCCC[C@@H]1CC(=O)N[C@@H](CCC(=O)O)C(=O)N[C@@H](CC(C)C)C(=O)N[C@H](CC(C)C)C(=O)N[C@@H](C(C)C)C(=O)N[C@@H](CC(=O)O)C(=O)N[C@H](CC(C)C)C(=O)N[C@@H](CC(C)C)C(=O)O1 [surfactin standard, surfactin] (EL[dL]VD[dL]L; linker N-C via X1)
12 h
  Sporulation of the coccidia oocyst (%): 0%
24 h
  Sporulation of the coccidia oocyst (%): 0%
48 h
  Sporulation of the coccidia oocyst (%): 0^b %
72 h
  Sporulation of the coccidia oocyst (%): 0^b %
